Assay results: patent US20020032173A1, “Blood flow improvers and thrombosis preventives or remedies” (Koyo Chemical Co., Ltd., priority 2000, published 2002)
Several values for one entry are separate records, joined by “and”; a condition that tells them apart may be missing. Equal values may be shown once.

Experiments:
adult volunteers [1] = test: Test 1: blood flow improving effects, whole blood transit time by microchannel array flow analyzer (MC-FAN) after oral glucosamine hydrochloride; format: in vivo, human; settings: for Transit time: 100 μL heparinated whole blood; for Transit time, Mean: mean of 5 volunteers, mean before administration 50.3 sec
Description: From each of adult volunteers (A: male, B: female, C: female, D: female, E: male) who had taken usual breakfast, a first blood sample (10 mL) was collected at 1:00 p.m. Immediately after the collection of the blood sample, 1.5 g of glucosamine hydrochloride with 50 mL of water was administered to the volunteer. Blood samples (10 mL, each; 5% heparinated) were collected upon elapsed time of 30 min, 60 min and 90 min after the administration. The fluidity of each blood sample was determined by a microchannel array flow analyzer (MC-FAN) which is a capillary model fabricated by VLSI technology. The determination was carried out as will be described below. A fresh 5%-heparinated whole blood sample, which had been obtained by adding 0.5 part by weight of a 1,000 IU/mL heparin sodium solution to 9.5 parts by weight of the corresponding blood sample, was caused to flow through an array of 8,736 parallel microchannels of 7 μm in width, 30 μm in length and 4.5 μm in depth (Bloody 6-7) under 20 cmH2O suction by using the microchannel array flow analyzer (MC-FAN). A transit time necessary for 100 μL of the whole blood sample to pass through the microchannels was measured. Using a transit time necessary for 100 μL of physiological saline to pass through the microchannels as measured just before the blood measurement, the transit time of the whole blood sample was converted in accordance with the following equation: Transit time of the whole blood x 12 sec/transit time of the physiological saline to obtain a value which would have been available if the transmit time of physiological saline had been 12 sec. The value was recorded as a blood transit time. The results are shown in Table 1, including indices of whole blood transit times of the blood samples collected after the administration of the glucosamine hydrochloride based on those of the corresponding blood samples collected before the administration of glucosamine hydrochloride (% relative to an initial value of 100%).

adult volunteers [2] = test: Test 3: whole blood transit time by MC-FAN after oral N-acetylglucosamine; format: in vivo, human; settings: mean before administration 60.9 sec
Description: From each of adult volunteers (A: male, B: female, C: female, D: female, E: male) who had taken usual breakfast, a first blood sample (10 mL) was collected at 1:00 p.m. Immediately after the collection of the blood sample, 1.5 g of glucosamine hydrochloride with 50 mL of water was administered to the volunteer. Blood samples (10 mL, each; 5% heparinated) were collected upon elapsed time of 30 min, 60 min and 90 min after the administration. The fluidity of each blood sample was determined by a microchannel array flow analyzer (MC-FAN) which is a capillary model fabricated by VLSI technology. The determination was carried out as will be described below. […] A transit time necessary for 100 μL of the whole blood sample to pass through the microchannels was measured. Using a transit time necessary for 100 μL of physiological saline to pass through the microchannels as measured just before the blood measurement, the transit time of the whole blood sample was converted in accordance with the following equation: Transit time of the whole blood x 12 sec/transit time of the physiological saline to obtain a value which would have been available if the transmit time of physiological saline had been 12 sec. The value was recorded as a blood transit time. […]

| Compound | Index (%) of whole blood transit time relative to initial value of 100% (adult volunteers [1]; 30 min after oral 1.5 g) [%] | Index (%) of whole blood transit time relative to initial value of 100% (adult volunteers [1]; 60 min after oral 1.5 g) [%] | Transit time (adult volunteers [1]; individual volunteer E, 90 min after oral 1.5 g with 50 mL water) [s] | Transit time (adult volunteers [1]; individual volunteers A-E, 30 min after oral 1.5 g with 50 mL water, normalised to saline 12 sec, hydrochloride) | Transit time (adult volunteers [1]; individual volunteers A-E, 60 min after oral 1.5 g with 50 mL water, hydrochloride) | Transit time, Mean (adult volunteers [1]; 30 min after oral 1.5 g) [s] | Transit time, Mean (adult volunteers [1]; 60 min after oral 1.5 g) [s] | mean blood transit time (adult volunteers [2]; 30 min after administration as in Test 1) [s] | mean blood transit time (adult volunteers [2]; 1 hr after administration as in Test 1) |
| --- | --- | --- | --- | --- | --- | --- | --- | --- | --- |
| Cl.N[C@H]1C(O)O[C@H](CO)[C@@H](O)[C@@H]1O (stereo partly drawn) [glucosamine hydrochloride] | 70.0 | 67.1 | 31.6 | 35.3 s and 36.1 s and 28.6 s and 38.6 s and 37.1 s | 28.7 s and 37.1 s and 27.4 s and 42.3 s and 33.2 s | 35.1 | 33.7 |  |  |
| CC(=O)N[C@H]1C(O)O[C@H](CO)[C@@H](O)[C@@H]1O (stereo partly drawn) [N-acetylglucosamine] |  |  |  |  |  |  |  | 36.5 | increased back to the value before the administration |
